This test concerns Hydrocotyle species (HYDSS). Description: Post emergent synergy field study, penoxsulam + dicamba granule. The format is in vivo. Conditions: 112 gai/Ha on 30-3-4 granule fertilizer, average of 2 studies 4 weeks after application. The protocol:
Field and greenhouse studies were conducted to determine if there may be any synergistic response when penoxsulam is combined with other herbicides for post emergence broadleaf or sedge control. Field studies were conducted in established turfgrass sites containing a natural population of target broadleaf weeds. Replicated trials, containing a minimum of three replications and having individual plots ranging in size from 25 to 50 ft. sq (2.3 to 4.6 square meters), were initiated in the late spring when turf and weeds were actively growing. Granule treatments were uniformly applied to individual plots using a common hand-shaker method. Applications were made in the early morning when dew was present. Natural rainfall and supplemental irrigation were used to maintain healthy turf and active weed growth throughout the study period. Control of each weed species in the study site was made at 2, 4 and 8 weeks after treatment. Control was determined visually by comparing treated and untreated weeds and scored on a 0 to 100 percent scale where 0 corresponds to no control and 100 corresponds to complete kill.
Component A was penoxsulam at 0.02 or 0.04 lb ai/A. Component B was dicamba at 0.1 lb ai/A. Individual products and mixture were applied on a 30-3-4 granule fertilizer formulated to deliver 116 pounds fertilizer per acre (129 kg per hectare). Loadings for the individual component on the fertilizer were: • Penoxsulam 22.4 gai/Ha (0.02 lb ai/A)=0.017% • Penoxsulam 44.9 gai/Ha (0.04 lb ai/A)=0.034% • Dicamba 112 gae/Ha (0.1 lb ai/A)=0.086%
For combinations the same loadings were applied to the same granule carrier and applied as a single product to test area.

In the case of `COc1c(Cl)ccc(Cl)c1C(=O)O` [Dicamba, dicamba, reference compound], the “% Control Component B” value was found to be 29%.

The values are drawn from patent US8455397B2, “Penoxsulam as a turfgrass, vineyard and orchard floor herbicide” (Dow AgroSciences, LLC, priority 2005, dated 2013).
